How the values were obtained:
[1] = system: AKT; test: Downstream signal target phosphorylation assay in KM12 cells (western blot); type: cell-based; settings: Homo sapiens, 5 hours treatment, read-out: inhibition of phosphorylation of AKT IC50
Procedure: (§1) Colorectal cell lines KM 12 (harboring endogenous TPM3-TRKA fusion gene) cells were cultured in DMEM medium, supplemented with 10% fetal bovine serum and 100 U/mL of penicillin/streptomycin. One million cells were seeded in 6-well plate for 24 hours before compounds treatment. Cells were washed with 1×PBS and collected after 5 hours treatment and lysed in RIPA buffer (50 mM Tris, pH 7.4, 150 mM NaCl, 1% NP-40, 0.5% Deoxycholate, 0.1% SDS) supplemented with 10 mM EDTA, Halt protease and phosphatase inhibitors (Thermo Scientific). Protein lysates (20 μg) were resolved on 4-12% Bolt Bis-Tris precasted gels with MES running buffer (Life Technologies), transferred to nitrocellulose membranes using Trans-Blot Turbo Transfer System (Bio-Rad) and detected with antibodies targeting phosphorylated TRK A (Cell Signaling Technology, Y496, Y680, Y681, clone C50F3; 1:1000 dilution), total TRK A (Santa Cruz Biotechnology, sc-11; clone C-14, 1:2000 dilution), phosphorylated AKT (Cell signaling, S473, D9E, #9271; 1:5000 dilution), total AKT (Cell Signaling Technology, 40D4; 1:2000 dilution), phosphorylated ERK (Cell Signaling Technology, Thr 202/204, D13.14.4E, #4370; 1:2000 dilution), total ERK (Cell Signaling Technology; 1:1000 dilution) and Tubulin (Sigma, T4026, 1:5000 dilution). […]

[2] = system: ERK; test: as above; type: cell-based; settings: Homo sapiens, 5 hours treatment, read-out: inhibition of phosphorylation of ERK IC50
Procedure: as §1

[3] = molecular target: TRKB (Homo sapiens (Human), UniProt Q16620); test: KINOMEscan kinase binding assay (DiscoveRx)
Procedure: (§2) Kinase binding assays were performed at DiscoveRx using the general KINOMEscan Kd Protocol (Fabian, M. A. et al., “A small molecule-kinase interaction map for clinical kinase inhibitors,” Nat. Biotechnol. 2005, 23(3):329-36). For most assays, kinase-tagged T7 phage strains were prepared in an E. coli host derived from the BL21 strain. E. coli were grown to log-phase and infected with T7 phage and incubated with shaking at 32° C. until lysis. The lysates were centrifuged and filtered to remove cell debris. The remaining kinases were produced in HEK-293 cells and subsequently tagged with DNA for qPCR detection. Streptavidin-coated magnetic beads were treated with biotinylated small molecule ligands for 30 minutes at room temperature to generate affinity resins for kinase assays. The liganded beads were blocked with excess biotin and washed with blocking buffer (SeaBlock (Pierce), 1% BSA, 0.05% Tween 20, 1 mM DTT) to remove unbound ligand and to reduce nonspecific binding. […] All reactions were performed in polystyrene 96-well plates in a final volume of 0.135 mL. […] The beads were then re-suspended in elution buffer (1×PBS, 0.05% Tween 20, 0.5 μM non-biotinylated affinity ligand) and incubated at room temperature with shaking for 30 minutes. The kinase concentration in the eluates was measured by qPCR.

[4] = molecular target: PLK4 kinase (Homo sapiens (Human), UniProt O00444); test: KINOMEscan kinase binding assay (DiscoveRx); settings: read-out: binding affinity with PLK4 kinase (Kd)
Procedure: as §2

[5] = molecular target: JAK1 (Homo sapiens (Human), UniProt P23458); test: KINOMEscan kinase binding assay (DiscoveRx)
Procedure: as §2

[6] = molecular target: TRKA (Homo sapiens (Human), UniProt P04629); test: KINOMEscan kinase binding assay (DiscoveRx)
Procedure: as §2

[7] = molecular target: JAK3 (Homo sapiens (Human), UniProt P52333); test: KINOMEscan kinase binding assay (DiscoveRx)
Procedure: as §2

[8] = molecular target: ROS1 (Homo sapiens (Human), UniProt P08922); test: KINOMEscan kinase binding assay (DiscoveRx)
Procedure: as §2

[9] = system: Essential thrombocythemia cell line SET-2 cells (harboring endogenous JAK2 point mutation); test: SET-2 cell proliferation assay (CellTiter-Glo); type: cell-based; settings: Homo sapiens, 72 hours incubation, read-out: SET2 cell proli. IC50
[10] = molecular target: TPM3-TRKA (Homo sapiens (Human), UniProt P04629+P06753); test: TRKA phosphorylation assay in KM12 cells (western blot); type: cell-based; settings: 5 hours treatment, read-out: inhibition of autophosphorylation of TPM3-TRKA IC50
Procedure: as §1

[11] = system: Colorectal cell line KM12 (harboring endogenous TPM3-TRKA fusion gene); test: KM12 cell proliferation assay (CellTiter-Glo); type: cell-based; settings: Homo sapiens, 72 hours incubation, read-out: KM 12 cell prolif. IC50
Procedure: (§3) Colorectal cell lines KM 12 (harboring endogenous TPM3-TRKA fusion gene) cells were cultured in DMEM medium, supplemented with 10% fetal bovine serum and 100 U/mL of penicillin/streptomycin. 5000 cells were seeded in 384 well white plate for 24 hours before compounds treatment. Cell proliferation was measured using CellTiter-Glo luciferase-based ATP detection assay (Promega) following the manufactures's protocol after 72 hours incubation. IC50 determinations were performed using GraphPad Prism software (GraphPad, Inc., San Diego, Calif.).
as §3, with “Alternatively: Colorectal” for “Colorectal”, “line KM12” for “lines KM 12”, “penicillin/streptomycin. […]” for “penicillin/streptomycin.”

[12] = system: KM12 cells; test: Caspase activity assay / PARP western blot; type: cell-based; settings: 72 hours
Procedure: KM12 cells were maintained in DMEM medium supplemented with 10% fetal bovine serum and antibiotics. 500,000 cells were seeded in 12-well plate and various concentration of compounds were introduced for 72 hours For staurosporine treatment, 500 nM of STS were added at time of 60 hours and incubation of 12 hours as a positive control. All the cells were collected and washed with 1×PBS twice and then lysed in a lysis buffer (20 mM HEPES, 150 mM NaCl, 10 mM KCl, 5 mM EDTA, 1% NP40) supplemented with Halt protease and phosphatase inhibitors (Thermo Scientific). For caspase assays, around 20 μL (20 μg) of cell lysate were incubated with 20 μL of caspase3 glo reagent (Promega), measuring enzyme activity by the release of luminescence after 20 min incubation at 37° C. For western blotting, cell lysates were boiled and analyzed by SDS-PAGE/immunoblotting using PARP, or actin antibodies.

[13] = system: T cell lymphoma Karpas-299 cell line (harboring endogenous NPM-ALK fusion gene); test: Karpas-299 cell proliferation assay (CellTiter-Glo); type: cell-based; settings: Homo sapiens, 72 hours incubation, read-out: Karpas 299 cell proli. IC50
[14] = molecular target: JAK2 (Homo sapiens (Human), UniProt O60674); test: KINOMEscan kinase binding assay (DiscoveRx)
Procedure: (§4) For most assays, kinase-tagged T7 phage strains were prepared in an E. coli host derived from the BL21 strain. E. coli were grown to log-phase and infected with T7 phage and incubated with shaking at 32° C. until lysis. The lysates were centrifuged and filtered to remove cell debris. The remaining kinases were produced in HEK-293 cells and subsequently tagged with DNA for qPCR detection. […] The liganded beads were blocked with excess biotin and washed with blocking buffer (SeaBlock (Pierce), 1% BSA, 0.05% Tween 20, 1 mM DTT) to remove unbound ligand and to reduce nonspecific binding. […] All reactions were performed in polystyrene 96-well plates in a final volume of 0.135 mL. […] The kinase concentration in the eluates was measured by qPCR.

[15] = molecular target: ALK (Homo sapiens (Human), UniProt Q9UM73); test: KINOMEscan kinase binding assay (DiscoveRx)
Procedure: as §4

[16] = system: Ba/F3-EML4-ALK wild type cell line; test: EML4-ALK Ba/F3 cell proliferation assay (CellTiter-Glo); type: cell-based; settings: 48 hours incubation
Procedure: The EML4-ALK wild-type gene (variant 1) was synthesized at GenScript and cloned into pCDH-CMV-MCS-EF1-Puro plasmid (System Biosciences, Inc). Ba/F3-EML4-ALK wild type cell line was generated by infecting Ba/F3 cells with lentivirus containing EML4-ALK wide-type. Stable cell lines were selected by puromycin treatment, followed by IL-3 withdrawal. 5000 cells were seeded in 384 well white plate overnight before compound treatment. Cell proliferation was measured using CellTiter-Glo luciferase-based ATP detection assay (Promega) following the manufactures's protocol after 48 hours of various concentration of compound incubation. IC50 determinations were performed using GraphPad Prism software (GraphPad, Inc., San Diego, Calif.).

Chain of TRKA (P04629 33-796): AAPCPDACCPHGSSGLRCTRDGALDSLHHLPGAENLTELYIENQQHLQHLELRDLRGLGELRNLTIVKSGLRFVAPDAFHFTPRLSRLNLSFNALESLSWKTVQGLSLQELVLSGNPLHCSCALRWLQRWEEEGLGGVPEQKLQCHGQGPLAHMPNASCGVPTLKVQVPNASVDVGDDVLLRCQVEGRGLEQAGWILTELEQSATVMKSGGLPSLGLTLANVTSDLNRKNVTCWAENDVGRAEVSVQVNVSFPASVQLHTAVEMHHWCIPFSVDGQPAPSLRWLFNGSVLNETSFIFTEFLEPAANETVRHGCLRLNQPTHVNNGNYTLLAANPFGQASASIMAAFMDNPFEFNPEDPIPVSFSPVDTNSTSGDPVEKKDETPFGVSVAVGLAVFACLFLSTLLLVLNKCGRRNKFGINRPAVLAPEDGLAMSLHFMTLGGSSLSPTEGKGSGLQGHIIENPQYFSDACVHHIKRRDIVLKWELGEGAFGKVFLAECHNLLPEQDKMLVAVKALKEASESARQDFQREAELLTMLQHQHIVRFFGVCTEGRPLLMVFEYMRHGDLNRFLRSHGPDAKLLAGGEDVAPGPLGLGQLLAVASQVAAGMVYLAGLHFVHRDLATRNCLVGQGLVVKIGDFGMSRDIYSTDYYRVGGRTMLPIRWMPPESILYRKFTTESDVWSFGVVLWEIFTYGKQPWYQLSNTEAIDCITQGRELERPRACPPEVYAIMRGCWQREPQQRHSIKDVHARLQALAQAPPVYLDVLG
Chain of JAK1 (P23458 whole entry): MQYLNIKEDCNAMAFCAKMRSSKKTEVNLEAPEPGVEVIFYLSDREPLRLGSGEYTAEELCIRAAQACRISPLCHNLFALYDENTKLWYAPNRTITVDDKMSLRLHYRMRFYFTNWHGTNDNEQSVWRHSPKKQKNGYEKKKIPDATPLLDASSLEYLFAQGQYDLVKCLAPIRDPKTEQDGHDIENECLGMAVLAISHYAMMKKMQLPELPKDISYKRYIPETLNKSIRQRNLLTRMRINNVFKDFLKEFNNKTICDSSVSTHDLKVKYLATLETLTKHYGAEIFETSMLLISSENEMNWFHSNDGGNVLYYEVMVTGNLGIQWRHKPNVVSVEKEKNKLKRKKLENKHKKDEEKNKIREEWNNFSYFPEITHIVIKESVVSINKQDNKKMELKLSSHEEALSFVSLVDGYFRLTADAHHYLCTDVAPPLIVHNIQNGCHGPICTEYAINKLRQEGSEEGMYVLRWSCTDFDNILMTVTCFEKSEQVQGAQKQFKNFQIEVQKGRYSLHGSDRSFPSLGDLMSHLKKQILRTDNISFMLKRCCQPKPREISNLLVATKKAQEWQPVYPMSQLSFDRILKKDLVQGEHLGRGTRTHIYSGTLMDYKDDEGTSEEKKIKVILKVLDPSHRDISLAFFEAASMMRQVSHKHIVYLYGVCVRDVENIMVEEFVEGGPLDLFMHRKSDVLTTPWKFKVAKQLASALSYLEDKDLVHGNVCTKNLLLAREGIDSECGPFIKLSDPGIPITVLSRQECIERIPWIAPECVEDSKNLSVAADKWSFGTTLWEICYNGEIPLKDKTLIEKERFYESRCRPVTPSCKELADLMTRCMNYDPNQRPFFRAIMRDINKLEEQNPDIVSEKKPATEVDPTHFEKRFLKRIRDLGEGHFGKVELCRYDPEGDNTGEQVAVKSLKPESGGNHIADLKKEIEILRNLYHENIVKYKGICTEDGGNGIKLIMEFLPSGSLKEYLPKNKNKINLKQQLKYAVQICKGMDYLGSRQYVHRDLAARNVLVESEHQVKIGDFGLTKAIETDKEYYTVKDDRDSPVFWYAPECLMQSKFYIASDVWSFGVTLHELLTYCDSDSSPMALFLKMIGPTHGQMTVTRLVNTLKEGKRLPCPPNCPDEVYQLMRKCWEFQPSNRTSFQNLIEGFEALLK
Chain of JAK3 (P52333 whole entry): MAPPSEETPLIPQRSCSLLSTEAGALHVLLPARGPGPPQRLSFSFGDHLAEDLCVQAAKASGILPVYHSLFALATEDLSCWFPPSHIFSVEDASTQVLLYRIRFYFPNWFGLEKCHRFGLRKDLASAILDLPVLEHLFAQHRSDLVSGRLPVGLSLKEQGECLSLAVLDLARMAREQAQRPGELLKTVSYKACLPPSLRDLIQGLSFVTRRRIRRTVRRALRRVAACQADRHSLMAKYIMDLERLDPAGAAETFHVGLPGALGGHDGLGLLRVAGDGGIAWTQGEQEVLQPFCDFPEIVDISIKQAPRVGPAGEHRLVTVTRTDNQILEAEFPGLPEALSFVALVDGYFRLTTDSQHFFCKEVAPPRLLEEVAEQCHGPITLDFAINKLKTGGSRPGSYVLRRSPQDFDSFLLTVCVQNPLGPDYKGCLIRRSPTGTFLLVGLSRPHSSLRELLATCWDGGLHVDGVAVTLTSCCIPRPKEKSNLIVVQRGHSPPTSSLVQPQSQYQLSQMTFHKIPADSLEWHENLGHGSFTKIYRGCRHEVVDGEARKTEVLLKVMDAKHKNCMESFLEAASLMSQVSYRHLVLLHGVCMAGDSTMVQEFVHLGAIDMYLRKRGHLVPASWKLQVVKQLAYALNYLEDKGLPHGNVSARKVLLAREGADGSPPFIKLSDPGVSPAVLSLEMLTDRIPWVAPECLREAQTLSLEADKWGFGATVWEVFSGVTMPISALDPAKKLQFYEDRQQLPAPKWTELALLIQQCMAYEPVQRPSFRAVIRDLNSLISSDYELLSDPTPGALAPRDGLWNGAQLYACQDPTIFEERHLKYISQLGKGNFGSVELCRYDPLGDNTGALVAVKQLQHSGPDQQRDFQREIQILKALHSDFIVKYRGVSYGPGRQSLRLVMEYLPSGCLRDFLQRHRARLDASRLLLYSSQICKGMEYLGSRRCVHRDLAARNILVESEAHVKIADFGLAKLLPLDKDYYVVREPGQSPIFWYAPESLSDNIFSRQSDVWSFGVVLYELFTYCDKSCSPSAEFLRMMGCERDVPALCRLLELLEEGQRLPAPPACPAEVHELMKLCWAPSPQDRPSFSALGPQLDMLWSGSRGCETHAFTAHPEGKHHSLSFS
Chain of ALK (Q9UM73 19-1620): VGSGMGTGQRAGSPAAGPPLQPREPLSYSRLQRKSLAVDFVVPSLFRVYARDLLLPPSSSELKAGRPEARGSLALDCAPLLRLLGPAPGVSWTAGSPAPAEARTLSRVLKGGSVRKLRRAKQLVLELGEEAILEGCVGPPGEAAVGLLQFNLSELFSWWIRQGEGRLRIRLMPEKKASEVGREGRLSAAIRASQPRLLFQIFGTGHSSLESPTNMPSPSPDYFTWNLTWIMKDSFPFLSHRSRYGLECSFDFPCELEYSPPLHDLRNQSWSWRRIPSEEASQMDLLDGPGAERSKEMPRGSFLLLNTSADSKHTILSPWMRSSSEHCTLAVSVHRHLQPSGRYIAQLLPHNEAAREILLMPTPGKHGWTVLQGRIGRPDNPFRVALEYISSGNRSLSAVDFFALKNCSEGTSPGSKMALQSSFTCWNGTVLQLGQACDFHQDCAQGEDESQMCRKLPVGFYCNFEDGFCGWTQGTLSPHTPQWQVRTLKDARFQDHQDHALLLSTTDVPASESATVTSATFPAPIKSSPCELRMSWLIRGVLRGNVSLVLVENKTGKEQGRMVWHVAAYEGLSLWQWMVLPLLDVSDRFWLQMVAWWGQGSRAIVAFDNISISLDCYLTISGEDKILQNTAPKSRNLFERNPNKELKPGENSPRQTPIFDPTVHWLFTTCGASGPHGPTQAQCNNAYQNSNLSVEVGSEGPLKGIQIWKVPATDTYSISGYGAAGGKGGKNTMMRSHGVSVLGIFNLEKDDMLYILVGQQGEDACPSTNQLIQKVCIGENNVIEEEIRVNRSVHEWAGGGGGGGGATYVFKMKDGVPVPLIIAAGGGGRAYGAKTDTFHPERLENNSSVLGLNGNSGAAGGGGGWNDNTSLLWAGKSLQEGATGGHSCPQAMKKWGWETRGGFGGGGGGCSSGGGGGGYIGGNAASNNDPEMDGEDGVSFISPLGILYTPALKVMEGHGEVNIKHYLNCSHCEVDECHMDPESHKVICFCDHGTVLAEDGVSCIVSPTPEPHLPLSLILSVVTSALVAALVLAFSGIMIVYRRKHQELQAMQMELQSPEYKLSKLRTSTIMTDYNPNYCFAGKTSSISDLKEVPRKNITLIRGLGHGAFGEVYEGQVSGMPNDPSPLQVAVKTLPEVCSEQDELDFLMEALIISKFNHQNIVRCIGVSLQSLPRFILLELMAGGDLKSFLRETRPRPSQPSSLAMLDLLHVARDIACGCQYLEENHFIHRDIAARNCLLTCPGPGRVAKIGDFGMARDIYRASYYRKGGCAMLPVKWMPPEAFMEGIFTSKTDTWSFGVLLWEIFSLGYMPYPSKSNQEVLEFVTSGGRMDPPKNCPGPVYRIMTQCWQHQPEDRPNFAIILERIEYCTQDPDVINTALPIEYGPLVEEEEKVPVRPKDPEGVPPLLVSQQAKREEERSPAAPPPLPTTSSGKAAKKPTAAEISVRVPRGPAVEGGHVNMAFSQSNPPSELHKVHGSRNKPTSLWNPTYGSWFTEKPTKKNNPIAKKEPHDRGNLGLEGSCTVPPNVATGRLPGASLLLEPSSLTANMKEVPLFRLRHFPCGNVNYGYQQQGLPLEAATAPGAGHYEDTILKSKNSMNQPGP

SMILES	IC50 [1] [nM]	IC50 [2] [nM]	Kd [3] [nM]	Kd [4] [nM]	Kd [5] [nM]	Kd [6] [nM]	Kd [7] [nM]	Kd [8] [nM]	IC50 [9] [nM]	IC50 [10] [nM]	IC50 [11] [nM]	apoptosis of KM 12 cells [12]	IC50 [13] [nM]	Kd [14] [nM]	Kd [15] [nM]	EML4-ALK Ba/F3 cell proli. TC50 [16] [nM]
CN1Cc2cc(F)ccc2OCCNC(=O)c2cnn3ccc1nc23 [Example 20, 11-fluoro-14-methyl-6,7,13,14-tetrahydro-1,15-ethenopyrazolo[4,3-f][1,4,8,10]benzoxatriazacyclo-tridecin-4(5H)-one]	2.8	2	0.18	2.9	> 1000	0.031	120	21	2000	1.07	0.86	induced apoptosis	1000	4.8	80	–
CC1Oc2ccc3ncc(n3n2)C(=O)NCCOc2ccc(F)cc21 (centres unmarked) [Example 41, 10-fluoro-8-methyl-15,16-dihydro-8H-3,6-ethenoimidazo[5,1-f][1,10,4,7,8]benzodioxatriazacyclotridecin-17(14H)-one]	–	–	–	–	280	6	33	–	1500	–	118	–	3900	2.6	200	–
CC1Nc2ccn3ncc(c3n2)C(=O)NCCOc2ccc(F)cc21 (centres unmarked) [Example 51, 11-fluoro-13-methyl-6,7,13,14-tetrahydro-1,15-ethenopyrazolo[4,3-f][1,4,8,10]benzoxatriazacyclotridecin-4(5H)-one]	–	–	–	–	65	0.065	4.3	–	425	–	3.2	–	832	0.15	–	–
C[C@H]1Nc2ccn3ncc(c3n2)C(=O)NCCOc2ccc(F)cc21 [Example 51-1, (13R)-11-fluoro-13-methyl-6,7,13,14-tetrahydro-1,15-ethenopyrazolo[4,3-f][1,4,8,10]benzoxatriazacyclotridecin-4(5H)-one]	–	–	–	–	37	0.051	1.8	0.73	234	–	1.3	–	289	0.048	6.8	248
C[C@@H]1CNC(=O)c2cnn3ccc(nc23)N[C@H](C)c2cc(F)ccc2O1 [Example 92, (7R,13R)-11-fluoro-7,13-dimethyl-6,7,13,14-tetrahydro-1,15-ethenopyrazolo[4,3-f][1,4,8,10]benzoxatriazacyclotridecin-4(5H)-one]	–	–	–	–	–	–	–	–	142	–	0.3	–	88.7	–	–	78.6
C[C@H]1CNC(=O)c2cnn3ccc(nc23)N[C@H](C)c2cc(F)ccc2O1 [Example 93, (7S,13R)-11-fluoro-7,13-dimethyl-6,7,13,14-tetrahydro-1,15-ethenopyrazolo[4,3-f][1,4,8,10]benzoxatriazacyclotridecin-4(5H)-one]	–	–	–	–	–	–	–	–	242	–	0.5	–	–	–	–	21.1
